In ChEMBL document CHEMBL4376872, “Scaffold Hopping of Natural Product Evodiamine: Discovery of a Novel Antitumor Scaffold with Excellent Potency against Colon Cancer” (J Med Chem, 2020) one finds IC50 and inhibition data, which are given here for 44 compounds.

Usually IC50 stands for the point on the concentration scale where inhibition reaches its midpoint.

Test [1] deals with HCT-116. The test is described as follows: Antiproliferative activity against human HCT116 cells assessed as reduction in cell viability incubated for 72 hrs by CCK8 assay. In kind it is functional, cell-based. As to conditions: HCT-116, 72 h. A general note: Tetrazolium assays rely on reduction of a dye to a coloured formazan, in cell work by metabolically active cells.
Test [2] has as its system MDA-MB-435. The experiment in a line: Antiproliferative activity against human MDA-MB-435 cells assessed as reduction in cell viability incubated for 72 hrs by CCK8 assay. In kind it is functional, cell-based. As to conditions: MDA-MB-435, 72 h.
For test [3], the system named is A549. The test is described as follows: Antiproliferative activity against human A549 cells assessed as reduction in cell viability incubated for 72 hrs by CCK8 assay. In kind it is functional, cell-based. As to conditions: A549, 72 h.
The target of test [4] is T1, DNA topoisomerase 1 (Escherichia coli (strain K12)) (UniProt P06612).
T1 sequence (whole entry): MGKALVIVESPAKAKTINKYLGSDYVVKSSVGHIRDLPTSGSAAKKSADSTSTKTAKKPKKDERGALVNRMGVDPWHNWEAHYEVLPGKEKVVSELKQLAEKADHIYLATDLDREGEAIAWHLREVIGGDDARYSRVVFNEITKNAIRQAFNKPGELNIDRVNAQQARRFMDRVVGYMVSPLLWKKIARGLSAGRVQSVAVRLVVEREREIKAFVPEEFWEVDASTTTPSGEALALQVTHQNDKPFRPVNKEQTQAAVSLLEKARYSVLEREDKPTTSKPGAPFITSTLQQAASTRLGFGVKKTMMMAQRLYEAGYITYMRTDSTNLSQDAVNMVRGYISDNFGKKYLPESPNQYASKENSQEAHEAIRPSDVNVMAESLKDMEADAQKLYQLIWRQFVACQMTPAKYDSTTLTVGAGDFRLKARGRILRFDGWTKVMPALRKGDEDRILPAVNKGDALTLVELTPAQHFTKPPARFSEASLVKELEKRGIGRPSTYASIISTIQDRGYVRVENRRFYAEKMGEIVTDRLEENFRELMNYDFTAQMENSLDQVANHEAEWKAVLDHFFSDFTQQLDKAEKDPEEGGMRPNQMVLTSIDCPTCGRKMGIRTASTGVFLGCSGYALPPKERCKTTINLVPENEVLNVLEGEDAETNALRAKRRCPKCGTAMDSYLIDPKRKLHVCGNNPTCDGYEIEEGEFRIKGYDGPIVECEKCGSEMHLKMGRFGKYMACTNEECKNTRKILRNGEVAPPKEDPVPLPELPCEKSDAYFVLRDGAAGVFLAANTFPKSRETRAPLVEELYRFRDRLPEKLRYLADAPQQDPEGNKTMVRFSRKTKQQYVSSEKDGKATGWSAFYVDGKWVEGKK
The test is described as follows: Inhibition of Escherichia coli Top1 assessed as decrease in relaxation of supercoiled pBR322 plasmid DNA at 100 uM using supercoiled pBR322 plasmid DNA as substrate incubated for 15 mins by agarose gel electrophoresis analysis.

The target in test [5] is DNA topoisomerase 2-alpha (Homo sapiens) (UniProt P11388). The experiment in a line: Inhibition of human Top2alpha assessed as decrease in relaxation of supercoiled pBR322 plasmid DNA at 100 uM using supercoiled pBR322 plasmid DNA as substrate incubated for 30 mins by agarose gel electrophoresis analysis.
DNA topoisomerase 2-alpha (Homo sapiens), sequence (P11388 whole entry): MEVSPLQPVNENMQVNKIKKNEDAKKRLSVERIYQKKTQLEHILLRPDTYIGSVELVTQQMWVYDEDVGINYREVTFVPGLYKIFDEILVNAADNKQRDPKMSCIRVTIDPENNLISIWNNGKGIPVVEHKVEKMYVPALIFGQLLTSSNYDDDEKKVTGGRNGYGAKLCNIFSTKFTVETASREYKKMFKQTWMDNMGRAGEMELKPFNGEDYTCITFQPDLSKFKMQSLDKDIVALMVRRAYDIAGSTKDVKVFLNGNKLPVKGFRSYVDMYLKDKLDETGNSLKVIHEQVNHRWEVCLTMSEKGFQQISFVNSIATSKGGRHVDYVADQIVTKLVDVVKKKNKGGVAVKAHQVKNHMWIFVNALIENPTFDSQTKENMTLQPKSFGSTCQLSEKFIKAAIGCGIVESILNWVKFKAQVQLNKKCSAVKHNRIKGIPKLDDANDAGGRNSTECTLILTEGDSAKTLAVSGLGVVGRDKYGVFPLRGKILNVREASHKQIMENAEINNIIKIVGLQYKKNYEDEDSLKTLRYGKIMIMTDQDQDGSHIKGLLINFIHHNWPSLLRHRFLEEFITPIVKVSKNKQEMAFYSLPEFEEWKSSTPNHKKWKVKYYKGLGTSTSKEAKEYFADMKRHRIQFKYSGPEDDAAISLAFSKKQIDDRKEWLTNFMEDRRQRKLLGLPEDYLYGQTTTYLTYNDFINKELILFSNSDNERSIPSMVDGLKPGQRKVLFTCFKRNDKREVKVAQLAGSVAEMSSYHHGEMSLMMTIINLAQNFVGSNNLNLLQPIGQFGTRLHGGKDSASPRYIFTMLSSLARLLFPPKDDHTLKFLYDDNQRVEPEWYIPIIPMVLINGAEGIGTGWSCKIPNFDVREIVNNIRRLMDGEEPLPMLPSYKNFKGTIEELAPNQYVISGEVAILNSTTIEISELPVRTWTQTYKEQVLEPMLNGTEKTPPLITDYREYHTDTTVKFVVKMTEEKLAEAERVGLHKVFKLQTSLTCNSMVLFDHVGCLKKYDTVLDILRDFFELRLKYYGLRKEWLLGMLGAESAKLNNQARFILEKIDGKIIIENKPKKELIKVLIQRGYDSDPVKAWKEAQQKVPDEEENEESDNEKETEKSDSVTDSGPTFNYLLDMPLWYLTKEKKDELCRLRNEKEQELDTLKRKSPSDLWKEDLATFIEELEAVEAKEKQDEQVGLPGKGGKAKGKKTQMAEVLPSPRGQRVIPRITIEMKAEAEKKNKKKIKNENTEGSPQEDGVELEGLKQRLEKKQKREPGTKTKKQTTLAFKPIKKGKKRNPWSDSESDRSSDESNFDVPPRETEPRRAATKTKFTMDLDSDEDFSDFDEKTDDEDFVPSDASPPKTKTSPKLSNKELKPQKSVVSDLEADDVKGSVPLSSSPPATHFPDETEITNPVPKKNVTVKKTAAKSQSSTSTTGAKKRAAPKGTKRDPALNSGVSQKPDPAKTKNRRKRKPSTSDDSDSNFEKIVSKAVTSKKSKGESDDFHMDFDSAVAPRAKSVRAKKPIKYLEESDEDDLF

Active and inactive are the calls of the source. The calls are words filed in the database; no cut-off is given here.

For the compound `COc1ccc2c(c1)cc1n2CCN2C(=O)c3ccccc3N(C)C12` (stereo unspecified), the IC50 was 12 µM in test [1], 20.2 µM in test [2] and 2.7 µM in test [3].

Turning to `COc1ccc2c(c1)N(C)C1c3cc4cc(OC)ccc4n3CCN1C2=O` (stereo unspecified), the concentration for half-maximal inhibition (IC50) was 180 µM in test [1], above 200 µM in test [2] and 30.8 µM in test [3].

Turning to `COc1ccc2c(c1)c(C=O)c1n2CCN2C(=O)c3cc(F)ccc3N(C)C12` (stereo unspecified), the IC50 in test [1] is above 200 µM; in test [2], above 200 µM; in test [3], 59.2 µM.

As for `COc1ccc2c(c1)c(CO)c1n2CCN2C(=O)c3cc(F)ccc3N(C)C12` (stereo unspecified), the half-inhibitory concentration (IC50) was 5.6 µM in test [1], 22.8 µM in test [2] and 6.6 µM in test [3].

On to `COc1ccc2c(c1)c(CN1CCN(C)CC1)c1n2CCN2C(=O)c3cc(F)ccc3N(C)C12` (stereo unspecified), for which the results for the IC50 in test [1], in test [2] and in test [3] were 5.5 µM, 5.82 µM and 32.9 µM, respectively.

Take `CN1c2ccccc2C(=O)N2CCn3c(cc4cc(Cl)ccc43)C21` (stereo unspecified): the half-inhibitory concentration (IC50) in test [1] was 4.4 µM; in test [2] it was 13.5 µM; in test [3] it was 27.7 µM. Besides, the inhibition result in test [4] is “Active”. The inhibition entry in test [5] is “inactive”.

Turning to `CN1c2ccc(F)cc2C(=O)N2CCn3c(cc4cc(OC5CCC5)ccc43)C21` (stereo unspecified), the half-inhibitory concentration (IC50) in test [1] was 34.1 µM; in test [2] it was above 200 µM; in test [3], 98.5 µM.

As to `COc1ccc2c(c1)cc1n2C(C)(C)CN2C(=O)c3cc(F)ccc3N(C)C12` (stereo unspecified), the values for the half-inhibitory concentration (IC50) in test [1], in test [2] and in test [3] were 1.5 µM, 10.7 µM and above 200 µM, respectively.

As to `COc1ccc2c(c1)cc1n2CCCN2C(=O)c3ccccc3N(C)C12` (stereo unspecified), the concentration for half-maximal inhibition (IC50) in test [1] stood at 56 µM; in test [2], 196 µM; in test [3], 32 µM.

Consider `CN1c2ccccc2C(=O)N2CCn3c(cc4ccc(Cl)cc43)C21` (stereo unspecified), for which the IC50 in test [1], in test [2] and in test [3] was above 200 µM throughout.

`COc1ccc2c(c1)c(C=O)c1n2CCN2C(=O)c3cc(C)ccc3N(C)C12` (stereo unspecified): the IC50 in test [1] is 18.1 µM; in test [2], 70.5 µM; in test [3], above 200 µM.

For `COc1ccc2c(c1)N(C)C1c3cc4cc(Br)ccc4n3CCN1C2=O` (stereo unspecified), the IC50 in test [1], in test [2] and in test [3] was above 200 µM in each case.

`CSc1ccc2cc3n(c2c1)CCN1C(=O)c2cc(F)ccc2N(C)C31` (stereo unspecified): the half-inhibitory concentration (IC50) in test [1] was 9.4 µM; in test [2], 85.8 µM; in test [3] it was 8.3 µM.

Consider `COc1ccc2c(c1)cc1n2CCN2C(=O)c3cc(Br)ccc3N(C)C12` (stereo unspecified), for which the half-inhibitory concentration (IC50) in test [1], in test [2] and in test [3] was above 200 µM each time.

`CN1c2ccc(F)cc2C(=O)N2CCn3c(cc4cc(OC(F)(F)F)ccc43)C21` (stereo unspecified): the IC50 in test [1] was 0.83 µM; in test [2], above 200 µM; in test [3], 95.5 µM.

For the compound `CN1c2ccc(F)cc2C(=O)N2CCn3c(cc4cc(OC5CCCC5)ccc43)C21` (stereo unspecified), the values for the IC50 in test [1], in test [2] and in test [3] were 57.9 µM, above 200 µM and above 200 µM, respectively.

With `CN1c2ccccc2C(=O)N2CCn3c(cc4cc(O)ccc43)C21` (stereo unspecified), the results for the 50% inhibitory concentration (IC50) in test [1], in test [2] and in test [3] were 44.3 µM, 16.8 µM and 14.5 µM, respectively.

For the compound `COc1ccc2c(c1)cc1n2CCN2C(=O)c3cc(C)ccc3N(C)C12` (stereo unspecified), the IC50 is 19.4 µM in test [1], above 200 µM in test [2] and above 200 µM in test [3].

With `Cc1ccc2c(c1)cc1n2CCN2C(=O)c3ccccc3N(C)C12` (stereo unspecified), the figures for the IC50 in test [1], in test [2] and in test [3] were 0.03 µM, 13.3 µM and above 200 µM, respectively. Also, the inhibition result in test [4] is “Active”. Further, the inhibition result in test [5] was “inactive”.

`COc1ccc2c(c1)cc1n2CCN2C(=O)c3cc(OC)c(OC)cc3N(C)C12` (stereo unspecified): the IC50 in test [1] was above 121 µM; in test [2], 23.8 µM; in test [3] it was above 200 µM.

In the case of `CN1c2ccc(F)cc2C(=O)N2CCn3c(cc4cc(Br)ccc43)C21` (stereo unspecified), the values for the IC50 in test [1], in test [2] and in test [3] were 28.5 µM, 97.6 µM and above 200 µM, respectively.

As to `CN1c2ccccc2C(=O)N2CCc3c([nH]c4ccccc34)[C@H]21`, the half-inhibitory concentration (IC50) in test [1] was above 200 µM; in test [2] it was 22.1 µM; in test [3], above 200 µM.

For the compound `COc1ccc2c(c1)c(Br)c1n2CCN2C(=O)c3cc(F)ccc3N(C)C12` (stereo unspecified), the figures for the half-inhibitory concentration (IC50) in test [1], in test [2] and in test [3] were 9.2 µM, 89.1 µM and 12.3 µM, respectively.

As to `COc1ccc2c(c1)c(CO)c1n2CCN2C(=O)c3cc(C)ccc3N(C)C12` (stereo unspecified), the results for the IC50 in test [1], in test [2] and in test [3] were 5.8 µM, 41.5 µM and 72.1 µM, respectively.

`COc1ccc2c(c1)cc1n2CCN2C(=O)c3sccc3N(C)C12` (stereo unspecified): the half-maximal inhibitory concentration (IC50) in test [1] worked out at 9.5 µM; in test [2] it was 44.6 µM; in test [3], 47 µM.

Consider `COc1ccc2c(c1)cc1n2CCN2C(=O)c3cc(N)ccc3N(C)C12` (stereo unspecified), for which the IC50 in test [1], in test [2] and in test [3] was above 200 µM in each case.

As to `CN1c2ccccc2C(=O)N2CCn3c(cc4cc(Br)ccc43)C21` (stereo unspecified), the half-maximal inhibitory concentration (IC50) in test [1] came to 7.3 µM; in test [2] it was 15.9 µM; in test [3] it was 15.2 µM.

Take `CN1c2ccn(C)c2C(=O)N2CCn3c(cc4cc(O)ccc43)C21` (stereo unspecified): the IC50 in test [1], in test [2] and in test [3] was above 200 µM in each case.

For the compound `CN1c2ccsc2C(=O)N2CCn3c(cc4cc(O)ccc43)C21` (stereo unspecified), the IC50 in test [1] is 106 µM; in test [2], 66.8 µM; in test [3] it was 30.3 µM.

As for `CN1c2ccc(F)cc2C(=O)N2CCn3c(cc4cc(OC5CCCCC5)ccc43)C21` (stereo unspecified), the figures for the IC50 in test [1], in test [2] and in test [3] were 66.8 µM, 50.1 µM and 174 µM, respectively.

As to `Cc1ccc2c(c1)cc1n2CCN2C(=O)c3cc(F)ccc3N(C)C12` (stereo unspecified), the IC50 in test [1] was determined as 0.06 µM; in test [2], 1 µM; in test [3] it was 22.8 µM.

With `COc1ccc2c(c1)cc1n2C(C)(C)CN2C(=O)c3ccccc3N(C)C12` (stereo unspecified), the IC50 in test [1] was found to be 6.2 µM; in test [2] it was 86.4 µM; in test [3] it was 181 µM.

`COc1ccc2c(c1)cc1n2CCN2C(=O)c3c(ccn3C)N(C)C12` (stereo unspecified): the figures for the IC50 in test [1], in test [2] and in test [3] were 190 µM, above 200 µM and above 200 µM, respectively.

As for `[2H]C([2H])([2H])Oc1ccc2c(c1)cc1n2CCN2C(=O)c3cc(F)ccc3N(C)C12` (stereo unspecified), the concentration for half-maximal inhibition (IC50) is 0.01 µM in test [1], 11.4 µM in test [2] and 31.3 µM in test [3].

`Cc1ccc2c(c1)c(Br)c1n2CCN2C(=O)c3ccccc3N(C)C12` (stereo unspecified): the IC50 was determined as 3.3 µM in test [1], 12.3 µM in test [2] and 14.1 µM in test [3].

Consider `CN1c2ccccc2C(=O)N2CCCn3c(cc4cc(O)ccc43)C21` (stereo unspecified), for which the IC50 was above 200 µM in test [1], above 200 µM in test [2] and 111 µM in test [3].

Consider `CN1c2ccccc2C(=O)N2CCn3c(cc4cc(F)ccc43)C21` (stereo unspecified), for which the IC50 in test [1], in test [2] and in test [3] was above 200 µM throughout.

As to `COc1ccc2c(c1)C(=O)N1CCn3c(cc4ccccc43)C1N2C` (stereo unspecified), the results for the half-maximal inhibitory concentration (IC50) in test [1], in test [2] and in test [3] were 49.2 µM, 168 µM and 15.6 µM, respectively.

Turning to `CN1c2ccc(F)cc2C(=O)N2CCn3c(cc4cc(Cl)ccc43)C21` (stereo unspecified), the values for the IC50 in test [1], in test [2] and in test [3] were 6.7 µM, 143 µM and 53 µM, respectively.

Take `COc1cc2cc3n(c2c(OC)c1OC)CCN1C(=O)c2ccccc2N(C)C31` (stereo unspecified): the 50% inhibitory concentration (IC50) in test [1], in test [2] and in test [3] was above 200 µM in each case.

Turning to `COc1ccc2c(c1)N(C)C1c3cc4ccccc4n3CCN1C2=O` (stereo unspecified), the 50% inhibitory concentration (IC50) was 124 µM in test [1], above 200 µM in test [2] and 24.3 µM in test [3].

For the compound `COc1ccc2c(c1)c(C)c1n2CCN2C(=O)c3cc(F)ccc3N(C)C12` (stereo unspecified), the IC50 in test [1] is 21.9 µM; in test [2], 132 µM; in test [3] it was 13.2 µM.

With `CN1c2ccccc2C(=S)N2CCn3c(cc4cc(F)ccc43)C21` (stereo unspecified), the IC50 in test [1], in test [2] and in test [3] was above 200 µM each time.

With `COc1ccc2c(c1)cc1n2CCN2C(=O)c3cc(Cl)ccc3N(C)C12` (stereo unspecified), the IC50 in test [1] was 61.3 µM; in test [2] it was above 200 µM; in test [3], above 200 µM.
